“And” between values parts separate entries of the source, which are not always exact repeats. Equal values may be shown once.
Assays:
C57BL/6 mice = assay: Recognition of a new location of the known object (spatial memory); type: in vivo
From the text: The object recognition test is based on the fact that mice and rats spontaneously explore new object or location of a known object a lot longer than the know object or a known location of an object. This test was first used in rats (Ennaceur A., Delacour J., 1988). It was further shown by others that this type of memory testing is suitable for mice (Dodart J. et al. 1997, Messier C. 1997, Pittenger C. et al., 2002, Ryabinin A. et al., 2002, Sargolini F. et al., 2003). The method of recognition of an object is divided in two stages. The first one involves the recognition of a new location of a known object, which is used to assess spatial memory. The second one includes a test for recognition of a new in order to evaluate the non-spatial memory (Gaffan D., 1992, Kolb B. et al., 1994, Steckler T., 1998). Currently, both are widely used to determine the effectiveness of newly synthesized drugs on memory.
All experiments were carried out on 3-4 months old males (C57BL/6 line) 22-26 g weight with 10 animals in each group. All animals were kept in the animal facility (5 animals per cage) on the 12×12 hours light cycle (8 am-8 pm) with free access to food and water. […] Brown glass vials were used as test objects which are 2.7 cm in diameter (1.1 inch) and 5.5 cm high (2.2 inch). All vials were treated with 85% ethanol 2-3 minutes before each testing. Animals were placed in the center of the chamber.
Dimebon and compounds of the invention were dissolved in distilled water and administered orally at 0.05 mL per 10 g of animal mass 1 hour before the training exercise. All animals in the control group were treated with the equivalent dose of vehicle. The testing was performed 48 hours after the training exercise because animals forget the location of the object during the 48-hour resting time.
On the first day animals were brought in the testing room so that they could adapt to the testing environment for 20-30 min. Subsequently, each animal was placed in the empty testing chamber for 10 min, which was wiped with alcohol beforehand. After that animals were transferred back into the […] and returned to the animal facility.
The next day after habituation, the animals were brought back into the testing room where they were weighed and injected with the testing compound. An hour after injection, each animal was placed into the testing camber which had two identical objects that were positioned 14.5 cm (5.7 inches) from the corners on the diagonal. The training exercise lasted for 15 min for each animal. Subsequently, each animal was placed back into the cage and returned into the animal house.
The testing procedure was performed 48 hours after the training exercise. During the procedure two objects were used as in the training exercise. […] The amount of time that each animal spent on exploration each object was determined with 0.1 sec accuracy using two electronic stopwatches for total of 10 min. […] The survey of the object was counted as positive if the nose of an animal was pointed within 2 cm or if the animal was touching the objected directly with the nose.
Due to fair differences in the amount of time that each animal surveyed the object, the percentage of the survey time for each animal was determined using this formula: tNL/(tFL+tNL)×100 (where t is time, NL—new location(object), and FL—familiar location(object)). […] Subsequently, the statistical significance was analyzed using a Student's t-test criteria.

[1] = molecular target: T1, human recombinant serotonin 5-HT2A receptor (Homo sapiens, UniProt P28223); assay: Serotonin 5-HT2A agonist/antagonist functional assay (calcium fluorescence, HEK-293); type: cell-based; conditions: antagonist mode
T1 construct: expressed in transfected cells; host or cells: HEK-293 cells
From the text: To determine for agonist or antagonist activity of compounds of the invention in functional assays, human recombinant serotonin 5-HT2A receptor expressed in human embryonic kidney (HEK-293) cells (Jerman J C, Brough S J, Gager T, Wood M, Coldwell M C, Smart D and Middlemiss D N. Eur J Pharmacol, 414: 23-30, 2001) was used. Cells were suspended in DMEM buffer, and distributed in microplates. A cytoplasmic calcium fluorescent indicator which varies proportionally to the free cytosolic Ca^2+ ion concentration was mixed with probenicid in HBSS buffer complemented with 20 mM Hepes (pH 7.4), added into each well and equilibrated with the cells for 30 min at 37° C. followed by 30 min at 22° C. […]
The standard reference antagonist was ketanserin, which was tested in each experiment at several concentrations to generate a concentration-response curve from which its IC50 value was calculated.

[2] = molecular target: human recombinant dopamine D2S receptor (Homo sapiens, UniProt P14416); assay: Dopamine D2S antagonist activity ([35S]GTPγS binding, SPA); type: biochemical; conditions: for Antagonist Activity As Measured by % Inhibition D2S / inhibition at 0.03 µM / inhibition at 0.1 µM / inhibition at 0.3 µM: two values = assay run twice; for inhibition at 0.03 µM / inhibition at 0.1 µM / inhibition at 0.3 µM / inhibition at 1 µM / inhibition at 3 µM: read-out: Antagonist Activity As Measured by % Inhibition D2S
Description: To determine for agonist or antagonist activity of compounds of the invention in functional assays, human recombinant dopamine D2S receptor stably expressed in Chinese hamster ovary (CHO) cells (Gilliland S L and Alper R H. Naunyn-Schmiedeberg's Archives of Pharmacology. 361: 498, 2000) was used. Compounds of invention were pre-incubated with the membranes (0.05 mg/ml) and 3 μM GDP in modified HEPES buffer (20 mM HEPES, pH 7.4, 100 mM NaCl, 10 mM MgCl2, 1 mM DTT, 1 mM EDTA) for 20 minutes and Scintillation Proximity Assay (SPA) beads were then added for another 60 minutes at 30° C. The reaction was initiated by 0.3 nM [^35S]GTPγS for an additional 30 minute incubation period. […] Compounds were screened at 3 μM or lower, using 0.4% DMSO as vehicle. Assay results are presented as the percent response of specific binding in Table 9.

T1 sequence (P28223 whole entry): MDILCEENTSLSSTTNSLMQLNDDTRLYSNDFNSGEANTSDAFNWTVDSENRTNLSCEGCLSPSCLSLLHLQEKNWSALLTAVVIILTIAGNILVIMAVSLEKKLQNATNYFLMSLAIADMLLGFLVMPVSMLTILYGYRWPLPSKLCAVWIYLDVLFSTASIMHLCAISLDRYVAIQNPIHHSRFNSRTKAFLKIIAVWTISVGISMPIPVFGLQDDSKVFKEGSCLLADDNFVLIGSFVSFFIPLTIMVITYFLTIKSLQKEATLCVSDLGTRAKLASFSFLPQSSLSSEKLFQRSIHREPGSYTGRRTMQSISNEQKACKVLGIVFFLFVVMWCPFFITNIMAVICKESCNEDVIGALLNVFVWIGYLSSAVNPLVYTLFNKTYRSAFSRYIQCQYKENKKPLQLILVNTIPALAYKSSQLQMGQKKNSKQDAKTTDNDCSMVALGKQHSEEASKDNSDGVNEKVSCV
Chain of human recombinant dopamine D2S receptor (P14416 1-414 isoform P14416-2): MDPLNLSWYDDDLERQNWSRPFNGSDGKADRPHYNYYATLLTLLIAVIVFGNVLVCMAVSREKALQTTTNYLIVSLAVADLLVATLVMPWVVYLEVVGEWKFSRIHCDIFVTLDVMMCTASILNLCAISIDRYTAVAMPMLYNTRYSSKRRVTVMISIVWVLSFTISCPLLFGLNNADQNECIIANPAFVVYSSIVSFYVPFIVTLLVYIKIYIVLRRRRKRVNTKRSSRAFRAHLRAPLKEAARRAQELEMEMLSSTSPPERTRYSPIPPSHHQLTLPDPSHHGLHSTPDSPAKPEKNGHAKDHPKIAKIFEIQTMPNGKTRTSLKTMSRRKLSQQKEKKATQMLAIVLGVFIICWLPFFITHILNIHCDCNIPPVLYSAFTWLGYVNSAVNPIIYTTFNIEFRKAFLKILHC

Row | Compound | % of Control Agonist Response, 1st Assay ([1]; test concentration 1.00E−07 M) | % of Control Agonist Response, 2nd Assay ([1]; test concentration 1.00E−07 M) | % of Control Agonist Response, Mean ([1]; test concentration 1.00E−07 M) | % of Control Agonist Response, Mean ([1]; test concentration 3.00E−06 M) | % of Control Agonist Response, 2nd Assay ([1]; test concentration 3.00E−07 M) | % of Control Agonist Response, 1st Assay ([1]; test concentration 3.00E−08 M) | % of Control Agonist Response, 2nd Assay ([1]; test concentration 3.00E−08 M) | % of Control Agonist Response, Mean ([1]; test concentration 3.00E−08 M) | Antagonist Activity As Measured by % Inhibition D2S ([2]; 0.03 uM) | inhibition at 0.03 µM ([2]; 0.03 uM) | inhibition at 0.1 µM ([2]; 0.1 uM) | Antagonist Activity As Measured by % Inhibition D2S ([2]; 0.3 uM) | inhibition at 0.3 µM ([2]; 0.3 uM) | inhibition at 1 µM [2] | inhibition at 3 µM [2] | other results
1 | CN1CCc2c(c3ccccc3n2CCc2noc(-c3ccccc3)n2)C1 [Compound C4-1] | – | – | – | – | – | – | – | – | – | – | – | – | – | – | – | effect on memory in the recognition test of a known object in a new location (C57BL/6 mice; 0.05 mg/kg, 0.5 mg/kg, and 1 mg/kg): not significantly different from the control group; time exploring the object in a new location, % of the total time (C57BL/6 mice; 0.1 mg/kg): 61.3±6.9%; time exploring the object in the known position, % of the total time (C57BL/6 mice; 0.1 mg/kg): 38.7±6.9%
2 | COc1ccc(CCn2c3c(c4cc(C)ccc42)CN(C)CC3)cc1 [Compound 247] | 117% and 93% | 116% and 94% and 95% | 116.5% and 93.5% and 93.9% | −3.2% | 76% and 72% and 38% | 122% and 103% | 120% and 108% and 111% | 121.3% and 104.5% and 107% | 68% | 67% | 97% | 93% | 81% | 110% | 108% | % of Control Agonist Response, 1st Assay ([1]; test concentration 1.00E−06 M): −4% and −2% and 2%; % of Control Agonist Response, 2nd Assay ([1]; test concentration 1.00E−06 M): 0% and 3%; % of Control Agonist Response, Mean ([1]; test concentration 1.00E−06 M): −1.7% and 0.3% and 0.7%; % of Control Agonist Response, 1st Assay ([1]; test concentration 3.00E−06 M): −4%; % of Control Agonist Response, 2nd Assay ([1]; test concentration 3.00E−06 M): −3%; Antagonist Activity As Measured by % Inhibition D2S ([2]; 0.1 uM): 89%
3 | CN1CCc2c(c3cc(Cl)ccc3n2CCc2ccccc2)C1 [Compound 36, 8-chloro-2,3,4,5-tetrahydro-2-methyl-5-phenethyl-1H-pyrido[4,3-b]indole] | 111% and 100% and 105% | 102% and 106% and 115% | 106.4% and 103% and 109.9% | 5.3% and 9.7% and 0.4% | 105% and 98% and 97% | 109% | 108% | 108.7% | 85% | 76% | 97% | 104% | 98% | 102% | 107% | % of Control Agonist Response, 1st Assay ([1]; test concentration 3.00E−07 M): 92% and 109%; % of Control Agonist Response, Mean ([1]; test concentration 3.00E−07 M): 98.8% and 94.8% and 102.8%

— patent US9096591B2, “Tetracyclic compounds” (Medivation Technologies, Inc., priority 2007, dated 2015)
